Reference: PubChem BioAssay (NCI)
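Interpolation was linear, between the two tested concentrations surrounding the appropriate level; five concentrations were tested over 48 hours in 96-well plates. Definition used: TGI = concentration required for complete inhibition of growth.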

How the values were obtained:
Test in all cases: DTP human tumour cell line panel, 48 h
[1] = system: HCC-2998 colon
[2] = system: PC-3 prostate
[3] = system: SR leukemia
[4] = system: SK-MEL-5 melanoma
[5] = system: MDA-MB-231 breast
[6] = system: SNB-19 CNS
[7] = system: BT-549 breast
[8] = system: HL-60(TB) leukemia
[9] = system: RPMI-8226 leukemia
[10] = system: NCI/ADR-RES ovarian
[11] = system: SW-620 colon
[12] = system: HOP-62 NSCLC
[13] = system: MDA-N
[14] = system: OVCAR-4 ovarian
[15] = system: RXF 393 renal
[16] = system: TK-10 renal
[17] = system: HS 578T breast
[18] = system: EKVX NSCLC
[19] = system: K-562 leukemia
[20] = system: NCI-H460 lung
[21] = system: U251 CNS
[22] = system: T-47D breast
[23] = system: M14 melanoma
[24] = system: KM12 colon
[25] = system: ACHN renal
[26] = system: 786-0 renal
[27] = system: DU-145 prostate
[28] = system: OVCAR-5 ovarian
[29] = system: HOP-92 NSCLC
[30] = system: CAKI-1 renal
[31] = system: NCI-H522 lung
[32] = system: COLO 205 colon
[33] = system: LOX IMVI melanoma
[34] = system: SK-OV-3 ovarian
[35] = system: HCT-116 colon
[36] = system: SF-268 CNS
[37] = system: SF-295 CNS
[38] = system: OVCAR-3 ovarian
[39] = system: NCI-H226 lung
[40] = system: OVCAR-8 ovarian
[41] = system: A498 renal
[42] = system: UACC-257 melanoma
[43] = system: HCT-15 colon
[44] = system: NCI-H23 lung
[45] = system: MDA-MB-435
[46] = system: UACC-62 melanoma
[47] = system: IGROV1 ovarian
[48] = system: MOLT-4 leukemia
[49] = system: SNB-75 CNS
[50] = system: SN12C renal
[51] = system: SF-539 CNS
[52] = system: SK-MEL-2 melanoma
[53] = system: CCRF-CEM leukemia
[54] = system: UO-31 renal
[55] = system: MCF7 breast
[56] = system: MALME-3M melanoma
[57] = system: SK-MEL-28 melanoma
[58] = system: HT29 colon
[59] = system: A549 NSCLC

C#CCCOC(=O)CC1=C(C)/C(=C/c2ccc(S(C)=O)cc2)c2ccc(F)cc21 (centres undefined)
TGI [1]: 22.3 µM | TGI [2]: 28.7 µM | TGI [3]: 22.1 µM | TGI [4]: 24.7 µM | TGI [5]: 26 µM | TGI [6]: 29.6 µM | TGI [7]: 30.5 µM | TGI [8]: 20.7 µM | TGI [9]: 32.4 µM | TGI [10]: 36 µM | TGI [11]: 29.9 µM | TGI [12]: > 100 µM | TGI [13]: 21 µM | TGI [14]: 43 µM | TGI [15]: 84.7 µM | TGI [16]: 83.3 µM | TGI [17]: 40.4 µM | TGI [18]: 71.9 µM | TGI [19]: 35.3 µM | TGI [20]: 35.4 µM | TGI [21]: 29.4 µM | TGI [22]: 53.7 µM | TGI [23]: 33.1 µM | TGI [24]: 27.3 µM | TGI [25]: 44.3 µM | TGI [26]: 44.7 µM | TGI [27]: 31.4 µM | TGI [28]: > 100 µM | TGI [29]: 26.1 µM | TGI [30]: 65.4 µM | TGI [31]: 47 µM | TGI [32]: 32.9 µM | TGI [33]: 33.1 µM | TGI [34]: 84.3 µM | TGI [35]: 32.3 µM | TGI [36]: 50 µM | TGI [37]: 29.4 µM | TGI [38]: 33.8 µM | TGI [39]: 43.3 µM | TGI [40]: 42.8 µM | TGI [41]: 30.4 µM | TGI [42]: 29.7 µM | TGI [43]: 27.1 µM | TGI [44]: 68.9 µM | TGI [45]: 17.4 µM | TGI [46]: 27.4 µM | TGI [47]: 83.1 µM | TGI [48]: 44.1 µM | TGI [49]: 44.8 µM | TGI [50]: 35.6 µM | TGI [51]: 30.5 µM | TGI [52]: 30.5 µM | TGI [53]: 35 µM | TGI [54]: 33.6 µM | TGI [55]: 37.8 µM

Clc1ccc(-c2nc3ccc(Cl)cc3[nH]2)cc1
TGI [1]: 89.1 µM | TGI [2]: 77.5 µM | TGI [3]: > 100 µM | TGI [4]: > 100 µM | TGI [5]: > 100 µM | TGI [6]: > 100 µM | TGI [7]: > 100 µM | TGI [8]: > 100 µM | TGI [9]: 79.1 µM | TGI [10]: 56.1 µM | TGI [11]: > 100 µM | TGI [12]: > 100 µM | TGI [13]: 85.2 µM | TGI [14]: > 100 µM | TGI [56]: > 100 µM | TGI [15]: > 100 µM | TGI [16]: > 100 µM | TGI [57]: > 100 µM | TGI [58]: > 100 µM | TGI [17]: > 100 µM | TGI [18]: > 100 µM | TGI [19]: > 100 µM | TGI [59]: > 100 µM | TGI [20]: 98.4 µM | TGI [21]: > 100 µM | TGI [22]: > 100 µM | TGI [23]: > 100 µM | TGI [24]: 98.1 µM | TGI [25]: > 100 µM | TGI [26]: > 100 µM | TGI [27]: > 100 µM | TGI [29]: 75.1 µM | TGI [30]: > 100 µM | TGI [31]: 80.1 µM | TGI [32]: 34.9 µM | TGI [33]: 69.5 µM | TGI [34]: > 100 µM | TGI [35]: 53.3 µM | TGI [36]: > 100 µM | TGI [37]: 74.9 µM | TGI [38]: 96.5 µM | TGI [39]: > 100 µM | TGI [40]: > 100 µM | TGI [42]: > 100 µM | TGI [43]: > 100 µM | TGI [44]: 90.3 µM | TGI [45]: 84.5 µM | TGI [46]: > 100 µM | TGI [47]: > 100 µM | TGI [48]: > 100 µM | TGI [49]: > 100 µM | TGI [50]: 86.6 µM | TGI [51]: > 100 µM | TGI [52]: 67.4 µM | TGI [53]: > 100 µM | TGI [54]: 79.3 µM | TGI [55]: > 100 µM

CN1CCN(CCCNN)CC1
TGI [1]: > 100 µM | TGI [2]: > 100 µM | TGI [3]: > 100 µM | TGI [4]: > 100 µM | TGI [5]: > 100 µM | TGI [6]: > 100 µM | TGI [7]: > 100 µM | TGI [8]: > 100 µM | TGI [9]: > 100 µM | TGI [10]: > 100 µM | TGI [11]: > 100 µM | TGI [12]: > 100 µM | TGI [13]: > 100 µM | TGI [14]: > 100 µM | TGI [15]: > 100 µM | TGI [16]: > 100 µM | TGI [57]: > 100 µM | TGI [58]: > 100 µM | TGI [17]: > 100 µM | TGI [18]: > 100 µM | TGI [19]: 37.5 µM | TGI [59]: > 100 µM | TGI [20]: > 100 µM | TGI [21]: > 100 µM | TGI [22]: > 100 µM | TGI [23]: > 100 µM | TGI [24]: > 100 µM | TGI [25]: > 100 µM | TGI [26]: > 100 µM | TGI [27]: > 100 µM | TGI [28]: > 100 µM | TGI [29]: > 100 µM | TGI [30]: > 100 µM | TGI [31]: > 100 µM | TGI [32]: > 100 µM | TGI [33]: > 100 µM | TGI [34]: > 100 µM | TGI [35]: > 100 µM | TGI [36]: > 100 µM | TGI [37]: > 100 µM | TGI [38]: > 100 µM | TGI [39]: > 100 µM | TGI [40]: > 100 µM | TGI [41]: > 100 µM | TGI [42]: > 100 µM | TGI [43]: > 100 µM | TGI [44]: > 100 µM | TGI [45]: > 100 µM | TGI [46]: > 100 µM | TGI [47]: > 100 µM | TGI [48]: 1.44 µM | TGI [49]: > 100 µM | TGI [50]: > 100 µM | TGI [51]: > 100 µM | TGI [52]: > 100 µM | TGI [54]: > 100 µM | TGI [55]: > 100 µM
